Non-standard residues stand in square brackets, D forms with d. Residues, ends and D or L forms follow the SMILES beside them. *: point of attachment. Palmitoyl = CCCCCCCCCCCCCCCC(=O)*; Myristoyl = CCCCCCCCCCCCCC(=O)*
Tests used:
fibroblast proliferation = test: Cyquant Cell Proliferation Assay; format: cell-based
Description: For purposes of the present invention, proliferation is assessed using the Cyquant® Cell Proliferation Assay from Molecular Probes. This assay measures increased production of cellular nucleic acids that, in turn, results in increased binding of fluorescent dye.

P. cepacia = test: Minimum inhibitory concentration, P. cepacia; format: cell-based, Pseudomonas cepacia
Description: By “antimicrobial” activity is meant the ability to inhibit the growth of at least one microbial organism selected from the group consisting E. coli, P. aeruginosa, S. aureus and C. albicans, as confirmed by optical density measurement (“OD”). By “inhibition of growth” is meant reduction or absence of an increase greater than 5% in OD, a dimensionless measure of turbidity that is proportional to the amount of microbial cells present in a sample. For illustrative purposes, a OAB according to the present invention is added to a culture plate on which E. coli is present at a final concentration of about 5×10^3 cfu/ml. The plate is then incubated at about 37° C. for about 24 hours at which time the E. coli is resuspended by shaking, and OD is measured at about 600 nm. Thus, a reduction or absence of an increase greater than 5% in OD confirms the antimicrobial nature of the OAB with respect to E. coli. Minimum inhibitory concentration (“MIC”) is a method well-known to those of skill in the art for expressing antimicrobial activity. A compound to be tested is serially diluted into growth medium, inoculated with culture and then incubated. The MIC is the lowest dilution of compound that inhibits or prevents growth of the target microorganism.

| Compound | increase fibroblast proliferation (qualitative) (fibroblast proliferation) | MIC(P. cepacia) (P. cepacia) [ppm] | increase fibroblast proliferation (fibroblast proliferation) |
| --- | --- | --- | --- |
| CCCCCCCCCCCCCC(=O)N[C@@H](CCCCN)C(=O)N[C@H](C(=O)N[C@H](C(=O)N[C@@H](CCCCN)C(=O)N[C@@H](CO)C(N)=O)[C@@H](C)O)[C@@H](C)O [P190, Myr-KTTKS-amide] (Myristoyl-KTTKS-NH2) | increase fibroblast proliferation | ≤ 100 | – |
| CCCCCCCCCCCCCC(=O)N[C@H](C(=O)N[C@@H](CCCCN)C(=O)N[C@H](C(=O)N[C@H](C(=O)N[C@@H](CCCCN)C(N)=O)[C@@H](C)O)[C@@H](C)O)[C@@H](C)O [P228, Myr-TKTTK-amide] (Myristoyl-TKTTK-NH2) | increase fibroblast proliferation | – | – |
| CCCCCCCCCCCCCC(=O)N[C@@H](CCCCN)C(=O)N[C@@H](CC(C)C)C(=O)N[C@@H](C)C(=O)N[C@@H](CCCCN)C(=O)N[C@@H](CCCCN)C(=O)N[C@@H](C)C(=O)O [P252, Myr-KLAKKA-acid] (Myristoyl-KLAKKA-OH) | increase fibroblast proliferation | – | – |
| CCCCCCCCCCCCCC(=O)N[C@@H](C)C(=O)N[C@@H](CCCCN)C(=O)N[C@@H](CCCCN)C(=O)N[C@@H](CC(C)C)C(=O)N[C@@H](C)C(=O)N[C@@H](CCCCN)C(=O)O [P256, Myr-AKKLAK-acid] (Myristoyl-AKKLAK-OH) | increase fibroblast proliferation | – | – |
| CCCCCCCCCCCCCC(=O)NCC(=O)N[C@@H](C)C(=O)N[C@@H](CCCNC(=N)N)C(=O)O [P257, Myr-GAR-acid] (Myristoyl-Gly-Ala-Arg-OH) | increase fibroblast proliferation | – | – |
| CCCCCCCCCCCCCC(=O)NCC(=O)N[C@@H](CCCNC(=N)N)C(=O)N[C@@H](CCCCN)C(=O)NCC(=O)N[C@@H](CC(=O)O)C(=O)O [P266, Myr-GRKGD-acid] (Myristoyl-GRKGD-OH) | increase fibroblast proliferation | – | – |
| CCCCCCCCCCCCCC(=O)N[C@H](CC(C)C)C(=O)N[C@H](CCCCN)C(=O)N[C@H](CCCCN)C(=O)N[C@H](C)C(=O)N[C@H](CC(C)C)C(=O)N[C@H](CCCCN)C(=O)O [P286, Myr-d-[LKKALK]-acid] (Myristoyl-[dL][dK][dK][dA][dL][dK]-OH) | – | ≤ 100 | – |
| CCCCCCCCCCCCCC(=O)N[C@@H](CCCCN)C(=O)N[C@@H](CCCCN)C(=O)N[C@@H](C)C(=O)N[C@@H](CC(C)C)C(N)=O [P291, Myr-KKAL-amide] (Myristoyl-KKAL-NH2) | increase fibroblast proliferation | ≤ 100 | – |
| CCCCCCCCCCCCCC(=O)N[C@@H](CCCCN)C(=O)N[C@@H](CCCCN)C(=O)NCC(=O)N[C@@H](CCC(=O)O)C(=O)N[C@@H](CCSC)C(=O)O [P293, Myr-KKGEM-acid] (Myristoyl-KKGEM-OH) | increase fibroblast proliferation | – | – |
| CCCCCCCCCCCCCC(=O)N[C@@H](CC(C)C)C(=O)N[C@@H](CCCCN)C(=O)N[C@@H](CCCCN)C(=O)N[C@@H](C)C(=O)N[C@@H](CC(C)C)C(=O)N[C@@H](CCCCN)C(N)=O [P296, Myr-LKKALK-amide] (Myristoyl-LKKALK-NH2) | increase fibroblast proliferation | ≤ 100 | – |
| CCCCCCCCCCCCCC(=O)N1CCC[C@H]1C(=O)N[C@@H](CCCCN)C(=O)N[C@@H](CCCCN)C(=O)N[C@@H](C)C(=O)N[C@@H](CC(C)C)C(=O)N[C@@H](CCCCN)C(N)=O [P364, Myr-PKKALK-amide] (Myristoyl-PKKALK-NH2) | – | ≤ 100 | – |
| CCCCCCCCCCCCCC(=O)N[C@@H](CCCCN)C(=O)N[C@@H](CCCCN)C(=O)N[C@@H](CC(C)C)C(=O)N[C@@H](C)C(=O)N[C@H](CCCCN)C(N)=O [P365, Myr-KKLA-[K]^D-amide] (Myristoyl-KKLA[dK]-NH2) | – | ≤ 100 | – |
| CCCCCCCCCCCCCC(=O)NCC(=O)N[C@@H](CCCNC(=N)N)C(=O)NCC(=O)N[C@@H](CC(=O)O)C(=O)N[C@@H](CO)C(N)=O [P382, Myr-GRGDS-amide] | increase fibroblast proliferation | – | – |
| CCCCCCCC(=O)NCC(=O)N[C@@H](CCCNC(=N)N)C(=O)NCC(=O)N[C@@H](CC(=O)O)C(=O)N[C@@H](CO)C(N)=O [P387, Oct-GRGDS-amide] | increase fibroblast proliferation | – | – |
| CCCCCCCCCCCCCC(=O)N[C@@H](CC(=O)O)C(=O)N[C@@H](C)C(=O)N[C@@H](CC(=O)O)C(=O)O [P388, Myr-DAD-acid] (Myristoyl-Asp-Ala-Asp-OH) | increase fibroblast proliferation | – | – |
| CCCCCCCCCCCCCC(=O)N[C@@H](CC(=O)O)C(=O)N[C@@H](CC(=O)O)C(=O)N[C@@H](C)C(=O)N[C@@H](CC(=O)O)C(=O)O [P389, Myr-DDAD-acid] (Myristoyl-DDAD-OH) | increase fibroblast proliferation | – | – |

| Compound | increase fibroblast proliferation (qualitative) (fibroblast proliferation) | MIC(P. cepacia) (P. cepacia) [ppm] | increase fibroblast proliferation (fibroblast proliferation) |
| --- | --- | --- | --- |
| CCCCCCCCCCCCCCCC(=O)N[C@@H](C)C(=O)N[C@@H](C)C(=O)N[C@@H](CCCCN)C(=O)N[C@@H](CCCNC(=N)N)C(N)=O [P398, Pal-AAKR-amide] (Palmitoyl-AAKR-NH2) | – | ≤ 100 | – |
| CCCCCCCCCCCCCC(=O)N[C@@H](CCCCN)C(=O)N[C@H](C(=O)N[C@@H](C)C(=O)N[C@@H](CCCCN)C(=O)N[C@H](CCCCN)C(N)=O)[C@@H](C)CC [P401, Myr-KIAK-[K]^D-amide] (Myristoyl-KIAK[dK]-NH2) | increase fibroblast proliferation | – | – |
| CCCCCCCCCCCCCC(=O)N[C@@H](CC(C)C)C(=O)N[C@@H](CCCCN)C(=O)N[C@@H](CCCCN)C(=O)N[C@@H](C)C(=O)N[C@@H](CC(C)C)C(=O)N[C@H](CCCCN)C(=O)O [P406, Myr-LKKAL-[K]^D-acid] (Myristoyl-LKKAL[dK]-OH) | increase fibroblast proliferation | – | – |
| CCCCCCCCCCCCCC(=O)N[C@@H](CC(=O)O)C(=O)N[C@@H](CC(=O)O)C(=O)N[C@@H](CO)C(=O)N[C@@H](CO)C(=O)N[C@@H](CCCCN)C(=O)N[C@@H](CCCCN)C(N)=O [P411, Myr-DDSSKK-amide] (Myristoyl-DDSSKK-NH2) | increase fibroblast proliferation | – | – |
| CCCCCCCCCCCCCC(=O)N[C@@H](CC(=O)O)C(=O)N[C@@H](CC(=O)O)C(=O)N[C@@H](CC(C)C)C(=O)N[C@@H](C)C(=O)N[C@@H](CCCCN)C(=O)N[C@@H](CCCCN)C(N)=O [P412, Myr-DDLAKK-amide] (Myristoyl-DDLAKK-NH2) | increase fibroblast proliferation | – | – |
| CCCCCCCCCCCCCC(=O)N[C@@H](CCCCN)C(=O)N[C@@H](CC(C)C)C(=O)N[C@@H](C)C(=O)N[C@@H](CCCCN)C(=O)N[C@H](CCCCN)C(N)=O [P414, Myr-KLAK-[K]^D-amide] (Myristoyl-KLAK[dK]-NH2) | increase fibroblast proliferation | – | – |
| CCCCCCCCCCCCCC(=O)N[C@H](C(=O)N[C@H](C(=O)N[C@H](C(=O)N[C@H](C(=O)N[C@H](C(=O)N[C@@H](CCCCN)C(N)=O)[C@@H](C)CC)[C@@H](C)CC)[C@@H](C)CC)[C@@H](C)CC)[C@@H](C)CC [P417, Myr-IIIIIK-amide] (Myristoyl-IIIIIK-NH2) | increase fibroblast proliferation | – | – |
| CCCCCCCCCCCCCC(=O)N[C@H](C(=O)N[C@H](C(=O)N[C@H](C(=O)N[C@@H](CCCCN)C(=O)N[C@@H](CCCCN)C(N)=O)[C@@H](C)CC)[C@@H](C)CC)[C@@H](C)CC [P418, Myr-IIIKK-amide] (Myristoyl-IIIKK-NH2) | increase fibroblast proliferation | – | – |
| Dod-KKALK-amide [P328] | increase fibroblast proliferation | – | – |
| Myr-K-[K]^D-A-[L]^D-amide [P361] | increase fibroblast proliferation | – | – |
| Myr-KGL-[K]^D-amide (Myristoyl-KGL[dK]-NH2; SMILES CCCCCCCCCCCCCC(=O)N[C@@H](CCCCN)C(=O)NCC(=O)N[C@@H](CC(C)C)C(=O)N[C@H](CCCCN)C(N)=O) [P405] | increase fibroblast proliferation | – | – |
| Myr-KKALKL-amide (Myristoyl-KKALKL-NH2; SMILES CCCCCCCCCCCCCC(=O)N[C@@H](CCCCN)C(=O)N[C@@H](CCCCN)C(=O)N[C@@H](C)C(=O)N[C@@H](CC(C)C)C(=O)N[C@@H](CCCCN)C(=O)N[C@@H](CC(C)C)C(N)=O) [P380] | increase fibroblast proliferation | – | – |
| Pal-AARK-amide (Palmitoyl-AARK-NH2; SMILES CCCCCCCCCCCCCCCC(=O)N[C@@H](C)C(=O)N[C@@H](C)C(=O)N[C@@H](CCCNC(=N)N)C(=O)N[C@@H](CCCCN)C(N)=O) [P397] | increase fibroblast proliferation | – | – |
| Pal-KKLAK-amide (Palmitoyl-KKLAK-NH2; SMILES CCCCCCCCCCCCCCCC(=O)N[C@@H](CCCCN)C(=O)N[C@@H](CCCCN)C(=O)N[C@@H](CC(C)C)C(=O)N[C@@H](C)C(=O)N[C@@H](CCCCN)C(N)=O) [P333] | increase fibroblast proliferation | – | – |
| Pal-VGVAPG-amide (Palmitoyl-VGVAPG-NH2; SMILES CCCCCCCCCCCCCCCC(=O)N[C@H](C(=O)NCC(=O)N[C@H](C(=O)N[C@@H](C)C(=O)N1CCC[C@H]1C(=O)NCC(N)=O)C(C)C)C(C)C) [P247] | – | – | at least 30% |
